Source: paper PMC12073635, “Synthesis of Tricyclic and Tetracyclic Lactone Derivatives of Thieno[2,3-b]pyrazine or Thieno[2,3-b]quinoline: Preliminary Antitumor and Antiparasitic Activity Evaluation” (Molecules, 2025)

Assays:
[1] = tested on: L. infantum MHOM/MA/67/ITMAP-263 promastigotes; experiment: Resazurin-based assay against L. infantum promastigotes; type: cell-based, Leishmania infantum; conditions: Leishmania infantum, 72 h, dose-response
Procedure: (§1) The antiparasitic activity of compounds 2c–g, 3a, 5a and 7 was evaluated at a single concentration of 20 μM, against Trypanosoma brucei (T. brucei) and Leishmania infantum (L. infantum) promastigotes. The results are shown in Table 9 together with the cytotoxicity data (CC50) in THP-1–derived macrophages cells.
L. infantum MHOM/MA/67/ITMAP-263 promastigotes forms were grown at 27 °C, in complete RPMI-1640 medium supplemented with 10% heat-inactivated Fetal Bovine Serum (FBS), 2 mM L-glutamine, 100 UI/mL penicillin/streptomycin, 20 mM HEPES. Parasites maintenance was performed in T25 non-ventilated flasks by subpassage at a concentration of 1 × 10^6/mL every 5 days on T25 non-ventilated flasks.
The compounds’ efficacy against L. infantum promastigotes was evaluated using a resazurin-based assay. Parasites were added to 100 µL of serial dilutions of compounds in supplemented complete medium at a cell density of 5 × 10^5/mL. As a quality control, a dose–response curve to the antileishmanial drug miltefosine was included in all the assays. The final volume of the assay was 200 µL/well. Each condition was carried out in duplicate. Following 72 h of incubation at the specific conditions for L. infantum, 20 µL of a 0.5 mM resazurin solution was added, and the plates were incubated for a further 4 h under the same conditions. The methodology to obtain the results was the same described in Section 3.2.2. for T. brucei.

[2] = tested on: CaCo-2 (colorectal adenocarcinoma) cells; experiment: SRB cell growth inhibition assay, CaCo-2; type: cell-based, human; conditions: Homo sapiens, Caco-2, 72 h, mean ± standard deviation
Procedure: (§2) The antitumor potential of the Sonogashira coupling products 2, tricyclic lactones 3 and 5, and tetracyclic lactones 7 was evaluated using the sulforhodamine B (SRB) assay against five human tumor cell lines: colorectal adenocarcinoma (CaCo-2), breast adenocarcinoma (MCF-7), gastric adenocarcinoma (AGS), cervical carcinoma (HeLa), and non-small cell lung cancer (NCI-H460). A primary pig liver cell culture (PLP2) was used to assess the toxicity of compounds.
(§3) The human tumor cell lines used were CaCo-2 (colorectal adenocarcinoma), MCF-7 (breast adenocarcinoma), AGS (gastric adenocarcinoma), HeLa (cervical carcinoma), NCI-H460 (lung carcinoma). Non-tumor cell lines were also tested: PLP2 (primary pig liver culture). All the cell lines were maintained in RPMI-1640 medium supplemented with 10% fetal bovine serum, glutamine (2 mM), penicillin (100 U/mL), and streptomycin ([…]), with the exception of PLP2, which was maintained in DMEM medium supplemented with fetal bovine serum (10%), glutamine and antibiotics. The culture flasks were incubated at 37 °C and with 5% CO2, under a humid atmosphere. The cells were used only when they had 70 to 80% confluence. A known mass of each compound was dissolved in DMSO/H2O (1:1, 1 mL), in order to obtain the stock solutions with a concentration of 1 mM. […] Each compound concentration (10 μL) was incubated with the cell suspension (190 μL) of the cell lines tested in 96-well microplates for 72 h. The microplates were incubated at 37 °C and with 5% CO2 in a humid atmosphere after checking the adherence of the cells. All cell lines were tested at a concentration of 10,000 cells/well. After the incubation period, the cells were treated: TCA (10% w/v; 100 μL) was previously cooled, and plates were incubated for 1 h at 4 °C, washed with water, and, after drying, a SRB solution (0.057%, m/v; 100 μL) was added and left to stand at room temperature for 30 min. To remove non-adhered SRB, plates were washed three times with a solution of acetic acid (1% v/v) and placed to dry. Finally, an adhered SRB was solubilized with Tris (10 mM, 200 μL) and the absorbance at a wavelength of 540 nm was read in the Biotek ELX800 microplate reader. The results obtained by the SRB assay were expressed regarding the concentration compounds that can inhibit cell growth by 50%—GI50. Doxorubicin was used as a positive control.

[3] = tested on: MCF-7 (breast adenocarcinoma) cells; experiment: SRB cell growth inhibition assay, MCF-7; type: cell-based, human; conditions: Homo sapiens, MCF7, 72 h, mean ± standard deviation
Procedure: as §2, §3

[4] = tested on: AGS (gastric adenocarcinoma) cells; experiment: SRB cell growth inhibition assay, AGS; type: cell-based; conditions: Homo sapiens, 72 h, mean ± standard deviation
Procedure: as §2, §3

[5] = tested on: HeLa (cervical carcinoma) cells; experiment: SRB cell growth inhibition assay, HeLa; type: cell-based; conditions: Homo sapiens, 72 h, mean ± standard deviation
Procedure: as §2, §3

[6] = tested on: NCI-H460 (non-small cell lung cancer) cells; experiment: SRB cell growth inhibition assay, NCI-H460; type: cell-based; conditions: Homo sapiens, 72 h, mean ± standard deviation
Procedure: as §2, §3

[7] = SRB assay, toxicity in non-tumor PLP2 cells; type: cell-based, pig; conditions: PLP2 primary pig liver cells (non-tumor); non-tumor primary pig liver cells, SRB assay, 72 h, mean ± standard deviation
Procedure: as §2, §3

[8] = MTT cytotoxicity in THP-1-derived macrophages; type: cell-based, human; conditions: human, THP-1-derived macrophages (PMA-differentiated); MTT, 72 h, tested 100 to 12.5 μM; read-out: CC50 Interval in THP-1-Derived Macrophages
Procedure: Human leukemia cell line, THP-1 (ATCC® TIB-202™, Manassas, VA, USA) was cultured in RPMI-1640 medium supplemented with 10% heat-inactivated Fetal Bovine Serum (FBS), 2 mM L-glutamine, 100 UI/mL penicillin/streptomycin, 20 mM HEPES. The cell line was maintained in a humidified incubator at 37 °C and 5% CO2 by subculture every three days in 20 mL of media at a concentration of 1 × 10^5/mL in a T75 flask. All cell culture reagents were purchased from Lonza-Bioscience (Morrisville, NC, USA).
The cytotoxicity effect of compounds on THP-1-derived macrophages was assessed by the colorimetric MTT assay (3-(4,5-dimethylthiazol-2-yl)-2,5-diphenyl tetrazolium bromide). Briefly, THP-1 cells were suspended in RPMI complete medium at a density of 1 × 10^6 cells/mL and 100 μL/well were seeded in a 96-well plate and were differentiated into macrophages by addition of 40 ng/mL of phorbol-myristate 13-acetate (PMA, Sigma, Saint Louis, MI, USA) for 24 h followed by replacement with fresh medium for more 24 h. Subsequently, cells were incubated with 100 μL of compounds ranging from 100 to 12.5 μM after dilution in the RPMI complete medium. Each condition was carried out in quadruplicate. After 72 h of incubation at 37 °C 5% CO2, the medium was removed and 200 μL of 0.5 mg/mL MTT solution diluted in RPMI was added. Plates were incubated for an additional 4 h. Then 160 μL of media was removed and the same volume of 2-propanol was added. Absorbance was read at 570 nm using a Synergy 2 Multi-Mode Reader (Biotek, Winooski, VT, USA). Cytotoxicity was evaluated by the determination of the CC50 value (drug concentration that reduced the percentage of viable cells in 50%) and calculated by non-linear regression analysis using GraphPad Prism version 8.1.1 for Windows (GraphPad Software, San Diego, CA, USA). The results represent the average of at least three independent experiments. For each compound, the Selectivity Index (SI) was calculated as the ratio between cytotoxicity in THP-1 (CC50, 72 h) and activity against parasites (IC50, 72 h).

[9] = tested on: T. brucei Lister 427 bloodstream forms; experiment: Resazurin-based anti-T. brucei assay; type: cell-based, Trypanosoma brucei; conditions: Trypanosoma brucei, 72 h, dose-response
Procedure: as §1
T. brucei Lister 427 bloodstream forms were grown in a humidified incubator at 37 °C, 5% CO2 in complete HMI-9 medium 1 supplemented with 10% heat-inactivated Fetal Bovine Serum (FBS) and 100 UI/mL penicillin/streptomycin. Parasites maintenance was performed in T25 ventilated flasks by subpassage at a concentration of 1 × 10^4/mL every 2 days on T25 ventilated flasks.
The efficacy of compounds against T. brucei bloodstream forms was evaluated using a modified resazurin-based assay previously described in the literature. Parasites were added to 100 µL of serial dilutions of compounds in supplemented complete medium at a cell density of 5 × 10^3/mL for. As a quality control, a dose–response curve for the antitrypanosomal pentamidine was included in all the assays. The final volume of the assay is 200 µL/well. Each condition was carried out in duplicate. Following 72 h incubation at the specific conditions for T. brucei, 20 µL of a 0.5 mM resazurin solution was added and plates were incubated for a further 4 h under the same conditions. Fluorescence was measured at 544 nm and 590 nm excitation and emission wavelength, respectively, using a Synergy 2 Multi-Mode Reader (Biotek, Winooski, VT, USA). Results were shown as % of parasite growth inhibition compared to control (untreated parasites) and represent the average of at least three independent experiments. The effect was evaluated by the determination of the IC50 value (concentration required to inhibit growth in 50%) and calculated by non-linear regression curves using GraphPad Prism version 8.1.1 for Windows (GraphPad Software, San Diego CA, USA).

Row | Compound | IC50 [1] [µM] | GI50 [2] [µM] | GI50 [3] [µM] | GI50 [4] [µM] | GI50 [5] [µM] | GI50 [6] [µM] | GI50 at 72 h [7] [µM] | CC50 at 72 h [8] [µM] | IC50 [9] [µM]
1 | N=C(N)c1ccc(OCCCCCOc2ccc(C(=N)N)cc2)cc1 [Pentamidine, pentamidine, reference compound] | 2.94 |  |  |  |  |  |  |  | 
2 | Nc1ccc(-c2cc3c(sc4nccnc43)c(=O)o2)cc1 [Compound 3b, 8-(4-aminophenyl)-6H-pyrano[4′,3′:4,5]thieno[2,3-b]pyrazin-6-one] |  | 67.5 ± 4.19 | 75.7 ± 6.48 | 74.3 ± 5.96 | 58.1 ± 4.29 | 82.7 ± 7.41 | > 125 |  | 
3 | COC(=O)c1sc2nccnc2c1C#Cc1ccc(N)cc1 [Compound 2b, Methyl 7-[(4-aminophenyl)ethynyl]thieno[2,3-b]pyrazine-6-carboxylate] |  | 59.2 ± 1.76 | 49.7 ± 2.41 | 51.4 ± 2.87 | 47.9 ± 3.58 | 48.6 ± 4.31 | > 125 |  | 
4 | O=c1oc(-c2ccc(F)cc2)cc2c1sc1nccnc12 [Compound 3c, 8-(4-fluorophenyl)-6H-pyrano[4′,3′:4,5]thieno[2,3-b]pyrazin-6-one] |  | 44.1 ± 0.93 | 56.1 ± 3.56 | 51.5 ± 3.29 | 48.4 ± 3.19 | 72.4 ± 6.24 | > 125 |  | 
5 | O=c1oc(-c2ccc(Br)cc2)c(-c2ccc(Br)cc2)c2c1sc1nc3ccccc3cc12 [Compound 7c, 3,4-Bis(4-bromophenyl)-1H-pyrano[4′,3′:4,5]thieno[2,3-b]quinolin-1-one] |  | 87.8 ± 8.01 | 90.3 ± 4.16 | 104 ± 9.12 | 77.1 ± 1.12 | 108 ± 5.44 | > 125 | < 12.5 | 
6 | CCCCCCCCCCCCCCCCOP(=O)([O-])OCC[N+](C)(C)C [Milefosine, miltefosine, reference compound] |  |  |  |  |  |  |  |  | 2.9
7 | O=c1oc(-c2ccsc2)cc2c1sc1nccnc12 [Compound 3g, 8-(thiophen-3-yl)-6H-pyrano[4′,3′:4,5]thieno[2,3-b]pyrazin-6-one] |  | 52.5 ± 1.31 | 48.6 ± 2.15 | 45.3 ± 0.89 | 39 ± 1.78 | 44 ± 3.28 | > 125 |  | 
